This passage reports viability results from paper PMC12040169 (PLOS Biology, 2025).

The nature of the data set: in vitro. As to conditions: human, hela cells, % viability.

In the case of `Cc1cccc(N(CC(O)CN2C(=O)NC(C)(C)C2=O)S(=O)(=O)c2ccccc2)c1` (centres unmarked) [CBK263582], the viability at 28.5 h, 10 µM is 103%. With `N=c1sc(Cc2cc(Cl)ccc2Cl)cn1CC(=O)c1ccccc1` [CBK263584B], the viability at 28.5 h, 10 µM amounted to 89.6%. As for `COc1ccc(N(CC(O)CN2CCOCC2)S(=O)(=O)c2ccccc2)cc1` (centres unmarked) [CBK263589], the viability at 28.5 h, 10 µM amounted to 84.5%. As to `Cc1ccc(C2(c3ccc(C)cc3)CC2C(=O)Nc2ccccc2[N+](=O)[O-])cc1` (centres unmarked) [CBK263591], the viability at 28.5 h, 10 µM came out at 93.3%. As to `COc1ccc(C(=O)CSc2nnc(-c3ccc4c(c3)OCO4)n2-c2ccccc2)cc1` [CBK263592], the viability at 28.5 h, 10 µM was 80.7%. Still for that read-out and setting: for `O=[N+]([O-])c1ccc(NCCNC(=S)Nc2ccc(Cl)cc2)nc1` [CBK263594] the value was 85.8%. Consider `Cc1ccc(OCC(=O)NCCCN(C)C)cc1` [CBK263595], for which the viability at 28.5 h, 10 µM was found to be 98.3%. With `O=C1NC(=O)C(=Cc2ccccc2OS(=O)(=O)c2ccc3ccccc3c2)C(=O)N1` [CBK263599], the viability at 28.5 h, 10 µM (bulk resorufin, single well) was determined as 64%. Take `C/C(=N\NS(=O)(=O)c1ccc(C)cc1)C(C)(C)CC(=O)O` [CBK263601]: the viability at 28.5 h, 10 µM was found to be 102%. For `N=C1NC(=O)/C(=C/c2ccc(OC(=O)c3cccc([N+](=O)[O-])c3)cc2)S1` [CBK263606], the viability at 28.5 h, 10 µM was found to be 100%. Still for that read-out and setting: the same measure for `COc1ccc(NC(=O)/C(=C\c2ccc3c(c2)OCO3)NC(=O)c2ccco2)cc1` [CBK263607]: 86.3%. The same measure, in the same setting: the same measure for `O=C(Cc1ccccc1)Nc1ccc(Oc2ccc(C(=O)O)c(C(=O)O)c2)cc1` [CBK263611]: 90.3%; for `Cc1cc(C(=O)Nc2ccccc2C(=O)O)ccc1NC(=O)CC(C)C` [CBK263616]: 101%. Same read-out and setting: for `COc1ccc(CCNS(=O)(=O)c2cccc([N+](=O)[O-])c2)cc1OC` [CBK263618] the value was 89.5%; for `Cc1cccc(NC2=NC(=O)/C(=C\c3ccc(Cl)cc3)S2)c1C` [CBK263619], 101%; for `CS(=O)(=O)N1CCN(Cc2cc(Br)ccc2O)CC1` [CBK263620G], 93.9%. In the case of `COc1ccc(OC(C)C(=O)Nc2ccc(C(=O)O)cc2)cc1` (centres unmarked) [CBK263622], the viability at 28.5 h, 10 µM is 101%. `NS(=O)(=O)c1cccc(NC(=O)COc2ccc([N+](=O)[O-])cc2)c1` [CBK263624]: the viability at 28.5 h, 10 µM came out at 92.2%.

As to `COc1ccc(C(=O)NCc2ccc(S(N)(=O)=O)cc2)cc1[N+](=O)[O-]` [CBK263629], the viability at 28.5 h, 10 µM turned out to be 105%.

As for `COc1cc(/C=N\NC(=O)CSc2nc3ccccc3o2)ccc1O` [CBK263630], the viability at 28.5 h, 10 µM came out at 86.5%. Take `NNC(=O)CCc1nc2ccc(O)cc2[nH]1` [CBK263633]: the viability at 28.5 h, 10 µM came out at 93%. Take `Cc1ccc2nc(Nc3nc(C)cc(C)n3)[nH]c2c1` [CBK263634]: the viability at 28.5 h, 10 µM came out at 97.9%. Take `COc1ccc(-c2cc(C(=O)Nc3ccc(S(N)(=O)=O)cc3)c3ccccc3n2)cc1OC` [CBK263635]: the viability at 28.5 h, 10 µM was 93.1%.

With `CCc1cccc(NC(=O)CCc2ccccc2)c1` [CBK263637], the viability at 28.5 h, 10 µM stood at 112%. With `CN(C)S(=O)(=O)N1CCN(Cc2ccccc2)CC1` [CBK263638], the viability at 28.5 h, 10 µM came to 109%. On to `COC(=O)c1ccccc1NC(=O)c1c(C)c(-c2ccc(C)cc2)nc2ccccc12` [CBK263641], for which the viability at 28.5 h, 10 µM turned out to be 94.9%. Take `CC(=O)Nc1ccc(C(=O)NCc2ccc(S(N)(=O)=O)cc2)cc1` [CBK263642]: the viability at 28.5 h, 10 µM came out at 105%. As for `O=C(CCN1C(=O)/C(=C\c2cccs2)SC1=S)Nc1cc(Cl)ccc1O` [CBK263643], the viability at 28.5 h, 10 µM turned out to be 98.2%. For `N#C/C(=C\c1ccccc1O)C(=O)Nc1sc2c(c1C(N)=O)CCCC2` [CBK263644], the viability at 28.5 h, 10 µM stood at 101%. Turning to `COc1ccc(OC(C)C(=O)Nc2ccc(S(N)(=O)=O)cc2)cc1` (centres unmarked) [CBK263646], the viability at 28.5 h, 10 µM is 96%.

Take `O=C(O)Cn1c2ccccc2c2nc3ccccc3nc21` [CBK263649]: the viability at 28.5 h, 10 µM worked out at 81.1%. With `O=C(COc1ccccc1Cl)Nc1cccc(NC(=O)c2cccc(Cl)c2)c1` [CBK263651], the viability at 28.5 h, 10 µM worked out at 106%. On the same count and under the same terms, the same measure for `O=[N+]([O-])c1ccc(CN2CCN(Cc3cc(Br)ccc3O)CC2)cc1` [CBK263652G]: 88.9%. With `COc1ccc(Oc2coc3c(CN(C)C)c(O)ccc3c2=O)cc1` [CBK263653], the viability at 28.5 h, 10 µM is 95.7%.

As for `CONc1nc(NC(C)(C)C)nc(OCC#N)n1` [CBK263655], the viability at 28.5 h, 10 µM is 85.9%. For `CCOc1ccccc1NC(=O)CC1Sc2ccc(C(F)(F)F)cc2NC1=O` (centres unmarked) [CBK263659], the viability at 28.5 h, 10 µM came to 95.6%. Take `COc1ccc(O)c(CN2CCN(Cc3ccc(Cl)cc3)CC2)c1` [CBK263660]: under “bulk resorufin, single well”, the viability at 28.5 h, 10 µM came to 110%. Regarding `O=C1C2C3C=CC(C3)C2C(=O)N1CCN1CCN(S(=O)(=O)/C=C/c2ccccc2)CC1` (centres unmarked) [CBK263663], the viability at 28.5 h, 10 µM amounted to 88.4%.

Turning to `Cc1ccc(C2CC(=O)C(=CNCCN3CCN(C(=S)Nc4ccccc4)CC3)C(=O)C2)cc1` (centres unmarked) [CBK263665], the viability at 28.5 h, 10 µM stood at 96.3%. Consider `CCc1ccc(CN2CCN(Cc3cc(Br)ccc3O)CC2)cc1` [CBK263666], for which the viability at 28.5 h, 10 µM (bulk resorufin, single well) amounted to 96.5%. Turning to `CC1CCc2c(sc(NC(=O)CCN3C(=O)c4ccccc4C3=O)c2C(N)=O)C1` (centres unmarked) [CBK263667], the viability at 28.5 h, 10 µM came out at 94.4%. Take `O=[N+]([O-])c1cccc(S(=O)(=O)NCc2ccccn2)c1` [CBK263669]: the viability at 28.5 h, 10 µM turned out to be 98.4%. Take `Cc1ccc(NC(=O)C2C3C=CC(O3)C2C(=O)O)cc1` (centres unmarked) [CBK263670]: the viability at 28.5 h, 10 µM was found to be 91.4%. For the molecule `O=C1CC(c2ccc(Cl)cc2)CC(=O)C1=CNCCN1CCN(C(=O)Nc2ccccc2)CC1` (centres unmarked) [CBK263671], the viability at 28.5 h, 10 µM came out at 95.3%. For `c1ccc(CCNc2nc(-c3cccnc3)nc3ccccc23)cc1` [CBK263672], the viability at 28.5 h, 10 µM came out at 105%. On to `O=C(O)C1C2CCC(O2)C1C(=O)NCc1ccco1` (centres unmarked) [CBK263675], for which the viability at 28.5 h, 10 µM stood at 96.8%.

In the case of `CCc1cccc(C)c1NC(=O)C1C2CCC(O2)C1C(=O)O` (centres unmarked) [CBK263676], the viability at 28.5 h, 10 µM worked out at 88.1%. As for `COC(=O)c1c(NC(=O)C2CC=CCC2C(=O)O)sc2c1CCC(c1ccccc1)C2` (centres unmarked) [CBK263683], the viability at 28.5 h, 10 µM was 94.8%. As to `COc1ccc(NC(=O)C2C3CCC(C3)C2C(=O)O)cc1OC` (centres unmarked) [CBK263684], the viability at 28.5 h, 10 µM was 95.3%. With `Cc1sc(NC(=O)C2C3C=CC(C3)C2C(=O)O)c(C(N)=O)c1C` (centres unmarked) [CBK263685], the viability at 28.5 h, 10 µM was found to be 87.6%. On to `COc1ccc([N+](=O)[O-])cc1NC(=O)C1C2CCC(C2=C(C)C)C1C(=O)O` (centres unmarked) [CBK263686], for which the viability at 28.5 h, 10 µM was found to be 93.2%. On to `O=C(/C=C/c1ccccc1)NC(=S)Nc1ccc2oc(-c3ccncc3)nc2c1` [CBK263687], for which the viability at 28.5 h, 10 µM is 93.8%. As for `O=C(O)CC1S\C(=N/N=C\C=C/c2ccccc2)N(c2ccc(O)cc2)C1=O` (centres unmarked) [CBK263688], the viability at 28.5 h, 10 µM turned out to be 93%. Turning to `CCN1CCN(Cc2c(O)ccc3c(=O)c(-c4ccccc4OC)c(C(F)(F)F)oc23)CC1` [CBK263692], the viability at 28.5 h, 10 µM was determined as 87.6%.

Take `O=C(NC(=S)Nc1sc2c(c1C(=O)O)CCCC2)c1ccccc1` [CBK263695]: the viability at 28.5 h, 10 µM worked out at 98.1%. On to `C/C(=N\N=C1\N=C(O)C(CC(=O)NCc2ccccc2)S1)c1ccco1` (centres unmarked) [CBK263698], for which the viability at 28.5 h, 10 µM was found to be 89.9%.
